Measurements taken from PMC9513756, “Establishing a UHPLC-MS/MS method for evaluation of the influence of stir-frying on the pharmacokinetics of seven compounds in Arctii Fructus” (RSC Advances, 2022).
Where two headings read alike, the source gives them in different places.

Assay: Pharmacokinetics of seven compounds in rat plasma after oral administration of RAF and SAF extracts (UHPLC-MS/MS)
Type: in vivo, male Sprague-Dawley rats
Conditions: for Tmax / half-life / MRT inf / AUC(0-inf) / AUC(0-t): male, Sprague-Dawley, rat, plasma, po, 12 g/kg
[1] = oral RAF extract 12 g kg^−1, n = 6
[2] = oral RAF extract 12 g kg^−1, n = 6, read-out: Mean residence time (MRT(0–∞))
[3] = oral SAF extract 12 g kg^−1, n = 6
[4] = oral SAF extract 12 g kg^−1, n = 6, read-out: Mean residence time (MRT(0–∞))

Description: All the components were measured using a Shimadzu UHPLC system (Shimadzu, Japan), and a Triple Quadrupole 5500 LC-MS/MS system (AB Sciex, USA) in negative ion mode. […] The gradient program was: 5–28% B (0–3 min), 28% B (3–3.5 min), 28–38% B (3.5–4 min), 38% B (4–4.5 min), 38–100% B (4.5–6 min), 100–5% B (6–7 min). With a column temperature of 40 °C, the optimized key parameters including curtain gas, collision gas, ion spray voltage, and temperature were assigned values of 55 psi, 35 psi, 4500 V, and 550 °C, respectively.
The rat plasma sample (100 μL), IS (10 μL), and 2 M HCl (20 μL) were mixed and vortex mixed for 3 min. Subsequently, 1 mL of ethyl acetate–butyl alcohol (1 : 1) was spiked into the mixed solution, and then centrifuged for 5 min at 25 000 × g.[14] Next, the supernatant was transferred and evaporated with nitrogen gas. These residues were then re-dissolved in 100 μL of 60% methanol, with the final solutions being vortex mixed for 3 min, and then centrifuged for 10 min at 25 000 × g. Finally, the supernatant was injected into the UHPLC-MS/MS for extensive analysis.
Firstly, male Sprague-Dawley rats (200–220 g) in the animal laboratory at the Nanjing University of Chinese Medicine under the standard conditions (License number: SYXK(SU)-2007-0030) were fed. The rats were fed and provided with water for one week prior to the experimentation. Secondly, before the administration of the extracts, the rats were stopped from eating but were provided with water for 12 h prior to the test. […] Depending on the clinical dosage administered to the human body, the dosage of RAF and SAF comprised 12 g kg^−1 for oral administration. In addition, 500 μL blood samples (about 250 μL plasma) were collected in 1.5 mL heparinized polythene tubes at 0, 0.033, 0.083, 0.167, 0.33, 0.5, 0.75, 1, 2, 4, 6, 8, 12, 24, and 48 h via the postorbital venous plexus veins, after oral administration of the two extracts was observed. Finally, the collected plasma was centrifuged for 5 min at 25 000 × g and stored at −20 °C before the analysis. All the pharmacokinetic parameters were evaluated with the DAS 1.0 system (Medical College of Wannan, China). Furthermore, the maximum concentration of oral administration of AF (Cmax) and the time to reach Cmax (Tmax) were derived from the concentration–time profile. All the values were given as mean ± standard deviation.

Row | SMILES | Tmax [1] [h] | half-life [1] [h] | MRT inf [2] [h] | Tmax [3] [h] | half-life [3] [h] | MRT inf [4] [h] | shape of plasma concentration-time profile (oral RAF and SAF) | C (max) [1] [ng/mL] | C (max) [3] [ng/mL] | AUC(0-inf) [1] [ng·h/mL] | AUC(0-t) [1] [ng·h/mL] | AUC(0-inf) [3] [ng·h/mL] | AUC(0-t) [3] [ng·h/mL] | t 1/2 [1] [h] | Mean residence time (MRT(0–∞)) [1] [h] | T max [1] [min] | Mean residence time (MRT(0–∞)) [3] [h] | T max [3] [min] | t 1/2 [3] [h]
1 | COc1cc(C[C@H]2C(=O)OC[C@@H]2Cc2ccc(OC)c(OC)c2)ccc1O [Arctigenin, arctigenin] | 9 ± 2.45 | 8.25 ± 1.09 | 14.9 ± 0.99 | 8.67 ± 3.72 | 9.95 ± 4.46 | 17.8 ± 6.08 | double-peak phenomenon | 706.9 ± 148.9 | 600.8 ± 158.3 |  |  |  |  |  |  |  |  |  | 
2 | COc1ccc(C[C@H]2COC(=O)[C@@H]2Cc2ccc(O[C@@H]3O[C@H](CO)[C@@H](O)[C@H](O)[C@H]3O)c(OC)c2)cc1OC [Arctiin, arctiin] | 0.152 ± 0.09 | 3 ± 1.42 | 5.33 ± 2.99 | 0.072 ± 0.05 | 3.83 ± 1.86 | 8.98 ± 3.11 |  | 1019.3 ± 605.9 | 605.7 ± 389.5 | 1070 ± 417 | 826 ± 216 | 1970 ± 600 | 943 ± 228 |  |  |  |  |  | 
3 | O=C(/C=C/c1ccc(O)c(O)c1)O[C@@H]1C[C@](O)(C(=O)O)C[C@@H](O)[C@H]1O [Chlorogenic acid, chlorogenic acid] | 0.875 ± 0.41 |  | 3.72 ± 0.6 | 0.111 ± 0.43 | 4.37 ± 0.32 | 5.09 ± 1.82 |  | 348.5 ± 161.3 | 303.7 ± 105.7 | 1090 ± 588 | 1070 ± 594 | 937 ± 660 | 695 ± 307 | 2.175 ± 0.28 |  |  |  |  | 
4 | O=C(C=Cc1ccc(O)c(O)c1)OC1C(O)CC(O)(C(=O)O)CC1O (stereo not shown) [Cryptochlorogenic acid, cryptochlorogenic acid] | 0.431 ± 0.07 | 12.6 ± 7.96 | 19.9 ± 9.37 | 0.103 ± 0.05 | 13.5 ± 7.98 | 16.9 ± 8.6 |  | 34.80 ± 25.06 | 116.16 ± 35.41 | 196 ± 59.1 | 152 ± 60.7 | 280 ± 68 | 218 ± 80.3 |  |  |  |  |  | 
5 | O=C(C=Cc1ccc(O)c(O)c1)OC1CC(O)(C(=O)O)CC(OC(=O)C=Cc2ccc(O)c(O)c2)C1O (stereo not shown) [Isochlorogenic acid A, isochlorogenic acid A] | 0.792 ± 0.09 | 6.7 ± 3.61 | 8.35 ± 2.91 | 0.1 ± 0.07 | 3.27 ± 1.26 | 7.97 ± 5.12 |  | 99.05 ± 37.81 | 135.71 ± 25.50 | 272 ± 169 | 219 ± 110 | 180 ± 63.6 | 101 ± 73.1 |  |  |  |  |  | 
6 | O=C(C=Cc1ccc(O)c(O)c1)OC1CC(O)(C(=O)O)CC(O)C1OC(=O)C=Cc1ccc(O)c(O)c1 (stereo not shown) [Isochlorogenic acid B, isochlorogenic acid B] |  |  |  |  | 24.3 ± 11.5 |  |  | 11.33 ± 8.68 | 43.22 ± 26.80 |  |  |  |  | 35.68 ± 18.24 | 52.97 ± 27.74 | 7.02 ± 4.2 | 32.75 ± 15.17 | 6.18 ± 3 | 
7 | O=C(C=Cc1ccc(O)c(O)c1)OC1CC(O)(C(=O)O)CC(O)C1OC(=O)C=Cc1ccc(O)c(O)c1 (stereo not shown) [Isochlorogenic acid C, isochlorogenic acid C] | 0.125 ± 0.05 |  |  | 0.078 ± 0.03 |  |  |  | 39.89 ± 17.30 | 103.84 ± 47.62 | 84.1 ± 46.3 | 71.5 ± 33.2 |  | 79.5 ± 25.1 | 9.002 ± 5.89 | 15.89 ± 11.25 |  | 8.736 ± 5.55 |  | 6.770 ± 4.30
